The source made the active and inactive calls.
Experiments:
Major prion protein = Major prion protein (Homo sapiens, UniProt P04156); format: functional, cell-based
[1] = C. albicans growth with fluconazole, confirmation, fluorescence, retest (AID 2467); format: functional, cell-based
[2] = molecular target: T1, Short transient receptor potential channel 4 (Mus musculus, UniProt Q9QUQ5); assay: mouse TRPC4 channel activators, dose response, cell-based, HEK293 TRPC4/mu-opioid, Fluo-4 calcium (AID 434937); format: functional
T1 sequence (Q9QUQ5 whole entry): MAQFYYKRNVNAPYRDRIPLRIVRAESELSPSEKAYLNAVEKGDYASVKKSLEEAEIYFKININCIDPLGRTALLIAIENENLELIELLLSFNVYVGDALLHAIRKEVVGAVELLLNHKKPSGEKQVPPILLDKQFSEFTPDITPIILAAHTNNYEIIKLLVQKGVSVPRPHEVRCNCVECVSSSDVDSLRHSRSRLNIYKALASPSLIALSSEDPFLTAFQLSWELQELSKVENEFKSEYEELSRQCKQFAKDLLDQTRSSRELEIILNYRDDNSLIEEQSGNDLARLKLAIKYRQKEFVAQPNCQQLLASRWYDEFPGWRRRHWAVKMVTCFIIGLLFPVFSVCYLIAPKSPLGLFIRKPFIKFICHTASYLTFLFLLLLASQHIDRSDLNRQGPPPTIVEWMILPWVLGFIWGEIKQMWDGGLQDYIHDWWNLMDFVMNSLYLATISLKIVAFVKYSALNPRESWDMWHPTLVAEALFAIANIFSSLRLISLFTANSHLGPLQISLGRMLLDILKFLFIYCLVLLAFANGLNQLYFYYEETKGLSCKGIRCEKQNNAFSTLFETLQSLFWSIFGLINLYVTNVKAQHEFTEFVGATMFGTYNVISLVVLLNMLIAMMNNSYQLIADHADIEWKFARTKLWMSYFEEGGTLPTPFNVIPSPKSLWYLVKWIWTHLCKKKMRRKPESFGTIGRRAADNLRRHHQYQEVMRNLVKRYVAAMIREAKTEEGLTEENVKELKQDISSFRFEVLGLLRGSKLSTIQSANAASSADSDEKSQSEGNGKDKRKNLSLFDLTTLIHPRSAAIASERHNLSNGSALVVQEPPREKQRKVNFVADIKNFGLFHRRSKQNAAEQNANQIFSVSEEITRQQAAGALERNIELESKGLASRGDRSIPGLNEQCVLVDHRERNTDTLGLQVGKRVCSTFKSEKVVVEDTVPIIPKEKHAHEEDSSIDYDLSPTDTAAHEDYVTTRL

[3] = molecular target: T2, High affinity choline transporter 1 (Homo sapiens, UniProt Q9GZV3); assay: CHT inhibitors, dose response, cell-based, 5-point CRC, membrane potential dye (AID 504840); format: functional
T2 sequence (Q9GZV3 whole entry): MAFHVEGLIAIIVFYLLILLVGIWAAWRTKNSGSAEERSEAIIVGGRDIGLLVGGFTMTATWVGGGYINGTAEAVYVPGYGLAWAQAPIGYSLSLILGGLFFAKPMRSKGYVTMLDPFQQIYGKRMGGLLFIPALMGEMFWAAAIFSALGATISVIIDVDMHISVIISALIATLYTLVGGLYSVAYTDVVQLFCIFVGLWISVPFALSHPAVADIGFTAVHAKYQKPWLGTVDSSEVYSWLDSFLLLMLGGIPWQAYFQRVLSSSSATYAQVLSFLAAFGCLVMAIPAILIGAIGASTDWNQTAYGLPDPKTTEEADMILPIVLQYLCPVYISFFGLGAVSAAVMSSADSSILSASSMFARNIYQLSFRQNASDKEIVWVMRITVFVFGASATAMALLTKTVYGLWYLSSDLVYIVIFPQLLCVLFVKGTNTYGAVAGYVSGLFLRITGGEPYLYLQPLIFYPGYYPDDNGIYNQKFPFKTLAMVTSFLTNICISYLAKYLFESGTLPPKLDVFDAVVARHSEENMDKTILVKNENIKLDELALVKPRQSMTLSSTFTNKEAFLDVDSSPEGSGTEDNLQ

[4] = human group III sPLA2 inhibitors, dose response, biochemical, QFRET, IC50 (AID 743457);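 also: green fluorescence rise as the enzyme cleaves BODIPY PC-A2 in liposomes; potency for inhibition of the enzyme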
[5] = NIH-3T3 fibroblast cytotoxicity, dose response, cytotoxicity control, cell-based, fluorescence, Alamar Blue, secondary assay (AID 2327); format: functional;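 also: NIH-3T3 mouse fibroblasts cultured with fluconazole at 8 µg/mL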
[6] = Vero E6 cell cytotoxicity, dose response, cytotoxicity control for non-replicating M. tuberculosis project, secondary assay (AID 492998); format: functional, VeroE6; conditions: Vero C1008
[7] = HEK293T cytotoxicity, dose response, cytotoxicity control for miR-122 modulator project, cell-based, activator set, cherry-pick (AID 720690); format: functional;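 also: HEK293T human cells scored for general mammalian cytotoxicity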
INS1 = assay: beta cell apoptosis inhibitors, cytokine rescue, dose response, luminescence, retest (AID 449756); format: functional, cell-based; conditions: Rattus norvegicus;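 also: cell death triggered by IL-1 beta plus TNF-alpha plus IFN-gamma mixture; protective hits raise ATP signal compared with cytokine alone wells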
[8] = THP-1 cell cytotoxicity, dose response, cytotoxicity control for non-replicating M. tuberculosis project (AID 489025); format: functional
[9] = HEK293T cytotoxicity, dose response, cytotoxicity control for miR-122 modulator project, cell-based, inhibitor set, cherry-pick, set 2 (AID 720697); format: functional
[10] = HepG2 cell cytotoxicity, dose response, cytotoxicity control for non-replicating M. tuberculosis project (AID 489018); format: functional; conditions: Mycobacterium tuberculosis
Paired box protein Pax-8 = Paired box protein Pax-8 (Homo sapiens, UniProt Q06710); assay: inhibitors of PAX8-driven TPO luciferase reporter, dose response, RMG-I cells, cherry-pick (AID 687027); format: functional, cell-based;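 also: luciferase reporter driven by Pax8 target thyroperoxidase promoter measured by SteadyGlo luminescence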
[11] = cytotoxicity in OVCAR8 ovarian cancer cells, dose response, PAX8 project, cell-based, plate reader, dry powder samples (AID 743197); format: functional; conditions: OVCAR-8
[12] = IOSE-T80 ovarian epithelial cell cytotoxicity, dose response, cytotoxicity control for PAX8 inhibitor project, plate reader, dry powder samples (AID 743045); format: functional, cell-based
[13] = IGROV1 ovarian cancer cell cytotoxicity, dose response, PAX8 inhibitor project, plate reader, dry powder samples (AID 743043); format: functional, cell-based; conditions: IGROV-1
[14] = NIH:OVCAR-3 ovarian cancer cell cytotoxicity, dose response, PAX8 inhibitor project, plate reader, dry powder samples (AID 743044); format: functional, cell-based
[15] = cytotoxicity in HeLa cells, dose response, cytotoxicity control, cell-based, plate reader, dry powder (AID 651946); format: functional
[16] = YAP1 pathway inhibition via CTGF transcript levels, dose response, cell-based, DLD1 colon cancer, RT-qPCR, cherry-pick (AID 1053122); format: functional; conditions: Cancer cell lines
[17] = CTGF mRNA reduction under YAP1 overexpression, dose response, mechanism study for YAP1 pathway inhibitor project, DLD1 cells, RT-qPCR, cherry-pick (AID 1053127); format: functional, cell-based; conditions: DLD-1
[18] = HEK293 cell cytotoxicity, dose response, cytotoxicity control, cherry-picks, set 5 (AID 1053117); format: functional, cell-based

For `COc1cccc(NC(=O)CCSc2ccc3ccccc3n2)c1`, the IC50 (cells) was > 138 µM (inactive) and the IC50 (Major prion protein) was 3.97 µM (active).

With `O=C(NNC(=S)NC(=O)C12CC3CC(CC(C3)C1)C2)c1ccncc1` the EC50 [1] was 3.2 µM (active), the EC50 [2] was 4.22 µM (active) and the IC50 [3] was 28.8 µM (active). For the same compound, the IC50 [4] was > 122 µM (inactive) and the EC50 [5] was 26.4 µM (active).

For `N#CC1=C(N)Oc2c(ccc3cccnc23)C1c1ccccc1` (configuration not stated), the CC50 [6] was 5.56 µM (active), the AC50 [7] was 42.5 µM (active) and the AC50 (INS1) was 4.54 µM (active). The CC50 [8] was 4.84 µM (active), the AC50 [9] was 2.47 µM (active) and the CC50 [10] was > 20 µM (active).

For `C[C@H](CO)N1C[C@H](C)[C@H](CN(C)Cc2ccc(C(=O)Nc3ccccc3N)cc2)Oc2ccc(N(C)C)cc2C1=O`, the AC50 (Paired box protein Pax-8) was 10.5 µM (active), the AC50 [11] was 33.7 µM (active) and the AC50 [12] was 56.3 µM (active). The AC50 [13] was 23.4 µM (active) and the AC50 [14] was 43.9 µM (active).

With `COc1ccccc1CSc1nnc(-c2ccccc2)o1` the AC50 [15] was > 52 µM (inactive).

With `CO[C@@H](CN(C)S(=O)(=O)c1ccc(C)cc1)[C@H](C)CN([C@@H](C)CO)S(=O)(=O)c1cccc(Cl)c1` the AC50 [16] was 16.4 µM (active) and the AC50 [17] was 17.7 µM (active).

With `C[C@@H]1CN([C@H](C)CO)C(=O)c2cc(NC(=O)C3CCCCC3)ccc2O[C@H]1CN(C)Cc1ccc(-c2ccccc2)cc1` the AC50 [18] was > 52 µM (inactive).

Reference: ChEMBL document CHEMBL1201862, “PubChem BioAssay data set” (2004)
